Source: patent publication US20240287046A1, “COMPOUNDS AND RADIOLIGANDS FOR TARGETING NEUROTENSIN RECEPTOR AND USES THEREOF” (Full-Life Technologies HK Limited, priority 2022, published 2024)
Read-outs that look alike come from different tables or passages of the source. Blank lines part the entries; values can stand above or below the compound they belong to.

What was measured:
human NTSR-1 = human NTSR-1 (Homo sapiens (Human), UniProt P30989); assay: radioligand competitive binding assay using ^177Lu labeled C-1 as reference radioligand; settings: for Relative Binding Affinity: Mean IC50 of C-1/Mean IC50 of the test compound; for IC50: Nonlin fit, single assay, HT-29 cells
human NTSR-1, sequence (P30989 whole entry): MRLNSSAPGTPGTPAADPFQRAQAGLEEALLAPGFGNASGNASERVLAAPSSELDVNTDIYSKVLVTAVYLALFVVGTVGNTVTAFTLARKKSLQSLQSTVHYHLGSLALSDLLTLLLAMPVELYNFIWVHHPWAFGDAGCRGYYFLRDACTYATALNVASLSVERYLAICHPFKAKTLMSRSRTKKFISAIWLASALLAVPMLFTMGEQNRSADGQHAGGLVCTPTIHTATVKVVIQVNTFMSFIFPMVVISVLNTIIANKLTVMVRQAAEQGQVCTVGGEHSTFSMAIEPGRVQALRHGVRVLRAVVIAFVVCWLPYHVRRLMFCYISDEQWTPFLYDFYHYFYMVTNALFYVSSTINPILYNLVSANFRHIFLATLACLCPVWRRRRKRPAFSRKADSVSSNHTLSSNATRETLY
Procedure: The binding affinities of test compounds were determined by a radioligand competitive binding assay using ^177Lu labeled C-1 as the reference radioligand.
Briefly, 100 μL HT-29 cells expressing human NTSR-1 at a density of 1˜2×10^6 cells/mL were mixed with binding buffer (RPMI-1640 medium supplemented with 0.25% bovine serum albumin) in each well of the 96-well filter plate (Millipore). Then the cells in each well were incubated with ^177Lu—C-1 (0.55 μCi/well) and the test compound under 37° C. for 1 hr (n=3). After incubation, unbound ^177Lu—C-1 and the test compound in each well was removed by filtration using a Multiscreen vacuum manifold (Millipore) and the cells were further rinsed with the binding buffer for 5 times. The cells from each well were then collected and radioactivity of the cells in each well was individually measured by y counter (2480 WIZARD2, PerkinElmer). The best-fit IC50 value of test compounds (inhibitory concentration when 50% of the bound ^177Lu—C-1 on cells were displaced) were calculated by fitting the data with nonlinear regression using GraphPad Prism 8.0.1.

[1] = system: ASPC-1 tumor-bearing mice; assay: Biodistribution of radionuclide labeled complexes in ASPC-1 tumor-bearing mice; type: in vivo, BALB/c nude mice
Procedure: The BALB/c nude mice (Charles River, Beijing) were utilized to establish the xenografted model for biodistribution study. All animal care and experimental procedure were performed by following the animal protocols approved by the ethics committee of China Institute of Radiation Protection.
Briefly, each mouse was inoculated with approximately 4×10^6 ASPC-1 cells (human pancreatic cancer cell line) or HT-29 cells (human colorectal adenocarcinoma cell line) expressing human NTSR-1 by subcutaneous injection at rear flank. After inoculation, the xenografted tumors were allowed to grow for ˜2-4 weeks till the tumor weight reached to about 0.05 to 0.50 g (0.20 g in average).
Biodistribution studies were performed by administrating the radionuclide labeled test compound at a dose of ˜30-50 μCi (100 μL in 0.9% NaCl, ˜1.11-1.85 MBq, with specific activity 30-250 μCi/nmol) to each animal through tail vein injection.
At different time points after the administration, the mice treated with each compound were euthanized. The tissues and organs of the animals in each group were collected, excised, weighed, and analyzed in a PerkinElmer 2480 WIZARD2γ counter, and the percent injected dose (% ID) and % ID/g of each organ or tissue were calculated.

[2] = read-out: LogIC50 Mean (converted)

Relative Binding Affinity (human NTSR-1): 293.0
IC50 (human NTSR-1; [2]): 0.158 nM
binding affinity compared to comparator compound C-1 or C-3 (human NTSR-1; single radioligand competitive binding assay): higher binding affinity
Structure (SMILES): COc1cccc(OC)c1-c1cc(C(=O)NC2(C(=O)O)C3CC4CC(C3)CC2C4)nn1-c1ccc(NCCCCN(C)C)cc1C(C)C (stereo not shown) [II-2, 2-(5-(2,6-dimethoxyphenyl)-1-(4-((4-(dimethylamino)butyl)amino)-2-isopropylphenyl)-1H-pyrazole-3-carboxamido)adamantane-2-carboxylic acid]

Structure (SMILES): CC(=O)N[C@@H](CCCCNC(=O)CN1CCN(CC(=O)O)CCN(CC(=O)O)CCN(CC(=O)O)CC1)C(=O)N1CCC[C@H]1C(=O)N(C)[C@@H](CCCNC(=N)N)C(=O)N[C@@H](CCCNC(=N)N)C(=O)N1CCC[C@H]1C(=O)N[C@@H](Cc1ccc(O)cc1)C(=O)N[C@H](C(=O)N[C@@H](CC(C)C)C(=O)O)C(C)(C)C [Compound C-1, reference compound]
Relative Binding Affinity (human NTSR-1): 1.00
IC50 (human NTSR-1; read-out: IC50 (nM) Mean): 40.3 nM
IC50 (human NTSR-1; [2]): 40.4 nM

% ID/g (4 h) Blood ([1]; Blood, 4 h): 0.93 ± 0.29 % ID/g
% ID/g (24 h) Blood ([1]; Blood, 24 h): 0.04 ± 0.00 % ID/g
% ID/g (72 h) Blood ([1]; Blood, 72 h): 0.01 ± 0.00 % ID/g
% ID/g (4 h) Femur ([1]; Femur, 4 h): 0.23 ± 0.06 % ID/g
% ID/g (24 h) Femur ([1]; Femur, 24 h): 0.04 ± 0.02 % ID/g
% ID/g (72 h) Femur ([1]; Femur, 72 h): 0.02 ± 0 % ID/g
% ID/g (4 h) Heart ([1]; Heart, 4 h): 0.41 ± 0.13 % ID/g
% ID/g (24 h) Heart ([1]; Heart, 24 h): 0.04 ± 0.02 % ID/g
% ID/g (72 h) Heart ([1]; Heart, 72 h): 0.01 ± 0.01 % ID/g
% ID/g (4 h) Intestine ([1]; Intestine, 4 h): 1.86 ± 0.58 % ID/g
% ID/g (24 h) Intestine ([1]; Intestine, 24 h): 0.14 ± 0.01 % ID/g
% ID/g (72 h) Intestine ([1]; Intestine, 72 h): 0.04 ± 0.01 % ID/g
% ID/g (4 h) Kidney ([1]; Kidney, 4 h): 3.02 ± 0.39 % ID/g
% ID/g (24 h) Kidney ([1]; Kidney, 24 h): 0.31 ± 0.11 % ID/g
% ID/g (72 h) Kidney ([1]; Kidney, 72 h): 0.04 ± 0.01 % ID/g
% ID/g (4 h) Liver ([1]; Liver, 4 h): 0.96 ± 0.4 % ID/g
% ID/g (24 h) Liver ([1]; Liver, 24 h): 0.14 ± 0.01 % ID/g
% ID/g (72 h) Liver ([1]; Liver, 72 h): 0.06 ± 0.02 % ID/g
% ID/g (4 h) Lung ([1]; Lung, 4 h): 0.74 ± 0.72 % ID/g
% ID/g (24 h) Lung ([1]; Lung, 24 h): 0.4 ± 0.26 % ID/g
% ID/g (72 h) Lung ([1]; Lung, 72 h): 0.05 ± 0.03 % ID/g
% ID/g (4 h) Muscle ([1]; Muscle, 4 h): 0.13 ± 0.12 % ID/g
% ID/g (24 h) Muscle ([1]; Muscle, 24 h): 0.01 ± 0.01 % ID/g
% ID/g (72 h) Muscle ([1]; Muscle, 72 h): 0.011 ± 0.01 % ID/g
% ID/g (4 h) Pancreas ([1]; Pancreas, 4 h): 0.07 ± 0.01 % ID/g
% ID/g (24 h) Pancreas ([1]; Pancreas, 24 h): 0.04 ± 0.02 % ID/g
% ID/g (72 h) Pancreas ([1]; Pancreas, 72 h): 0.01 ± 0 % ID/g
% ID/g (4 h) Spleen ([1]; Spleen, 4 h): 0.3 ± 0.14 % ID/g
% ID/g (24 h) Spleen ([1]; Spleen, 24 h): 0.12 ± 0.05 % ID/g
% ID/g (72 h) Spleen ([1]; Spleen, 72 h): 0.02 ± 0.01 % ID/g
% ID/g (4 h) Stomach ([1]; Stomach, 4 h): 1.88 ± 0.59 % ID/g
% ID/g (24 h) Stomach ([1]; Stomach, 24 h): 0.1 ± 0.07 % ID/g
% ID/g (72 h) Stomach ([1]; Stomach, 72 h): 0.04 ± 0.01 % ID/g
% ID/g (4 h) Tumor ([1]; Tumor, 4 h): 17.97 ± 11.04 % ID/g
% ID/g (24 h) Tumor ([1]; Tumor, 24 h): 12.27 ± 7.59 % ID/g
% ID/g (72 h) Tumor ([1]; Tumor, 72 h): 4.24 ± 2.71 % ID/g
ratio of tumor AUC verse normal organ AUC ([1]; compared to ^177Lu—C2): significantly improved
Structure (SMILES): COc1cccc(OC)c1-c1cc(C(=O)NC2(C(=O)O)C3CC4CC(C3)CC2C4)nn1-c1ccc(NCCOCCOCCNC(=O)CN2CCN(CC(=O)[O-])CCN(CC(=O)[O-])CCN(CC(=O)[O-])CC2)cc1C(C)C.[177Lu+3] (stereo not shown) [^177Lu-I-10]
